Laboratory results from patent US20080096951A1 (SB Pharmo Puerto Rico Inc., priority 2002, published 2008).
In brackets after ≈: the same amount, converted by molar mass. Like-named read-outs stand apart in the source and are kept apart here.

Legend:
physchem = conditions: 25 °C, water, thermodynamic from solid
Experimental: Glass vials containing water and excess amount of carvedilol salts were shaken by a mechanical shaker at ambient conditions. Aliquots were taken out at various time-point, filtered through 0.45 μm Acrodisc GHP filter. The pH of the filtered solutions was measured and suitable dilution was performed prior to UV-Vis analysis of carvedilol concentration.

[1] = cited from earlier work

**Q.** Which results are given for `COc1ccccc1OCCNCC(O)COc1cccc2[nH]c3ccccc3c12` (racemic) [Carvedilol Free Base]?
**A.** solubility at 1 h (physchem): 9.8 µg/mL (≈ 24.1 µM); solubility at 24 h (physchem): 11.6 µg/mL (≈ 28.5 µM); solubility ([1]; above pH 9.0): < 1 µg/mL; saturation solubility ([1]; pH 5, room temperature): ~100 µg/mL; saturation solubility ([1]; pH 7, room temperature): ~23 µg/mL
